Experimental data: ChEMBL document CHEMBL1201862, “PubChem BioAssay data set” (2004)
The source made the active and inactive calls.

Key:
[1] = M. tuberculosis H37Rv growth inhibitors, H37Rv strain (AID 1626); type: functional
[2] = molecular target: T1, Aminopeptidase N (Plasmodium falciparum FcB1/Columbia, UniProt O96935); experiment: P. falciparum M1AAP inhibitors, biochemical, fluorogenic H-Leu-NHMec substrate, 1536-well (AID 1445); set-up: species or system Plasmodium falciparum 3D7, 3D7
T1 sequence (O96935 whole entry): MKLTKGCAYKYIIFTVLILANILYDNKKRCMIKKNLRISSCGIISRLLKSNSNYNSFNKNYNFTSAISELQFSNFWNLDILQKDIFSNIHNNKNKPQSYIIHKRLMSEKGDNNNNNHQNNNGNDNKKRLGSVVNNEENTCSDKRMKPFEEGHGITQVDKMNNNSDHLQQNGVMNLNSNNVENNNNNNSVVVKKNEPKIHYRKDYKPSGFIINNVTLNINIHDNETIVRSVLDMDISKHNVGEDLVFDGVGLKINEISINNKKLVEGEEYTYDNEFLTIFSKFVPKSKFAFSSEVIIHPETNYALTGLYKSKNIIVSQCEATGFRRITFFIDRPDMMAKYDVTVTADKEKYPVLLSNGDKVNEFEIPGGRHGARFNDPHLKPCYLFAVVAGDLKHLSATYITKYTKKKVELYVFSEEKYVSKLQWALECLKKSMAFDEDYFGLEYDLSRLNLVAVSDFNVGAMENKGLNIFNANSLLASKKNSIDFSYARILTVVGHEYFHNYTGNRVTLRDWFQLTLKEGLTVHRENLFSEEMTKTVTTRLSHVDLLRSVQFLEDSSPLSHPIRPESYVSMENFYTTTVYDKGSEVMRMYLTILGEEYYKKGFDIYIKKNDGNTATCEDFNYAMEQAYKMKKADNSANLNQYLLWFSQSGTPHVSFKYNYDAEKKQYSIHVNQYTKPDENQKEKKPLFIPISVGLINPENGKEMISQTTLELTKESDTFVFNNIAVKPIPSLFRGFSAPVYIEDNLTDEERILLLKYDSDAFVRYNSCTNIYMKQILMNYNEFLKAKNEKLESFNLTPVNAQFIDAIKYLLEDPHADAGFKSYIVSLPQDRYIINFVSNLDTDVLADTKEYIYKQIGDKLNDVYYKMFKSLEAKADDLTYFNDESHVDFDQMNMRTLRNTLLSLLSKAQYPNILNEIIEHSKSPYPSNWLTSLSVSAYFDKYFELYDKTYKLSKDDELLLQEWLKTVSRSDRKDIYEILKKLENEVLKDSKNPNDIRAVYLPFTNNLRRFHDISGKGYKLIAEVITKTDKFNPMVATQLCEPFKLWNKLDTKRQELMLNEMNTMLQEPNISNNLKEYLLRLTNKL

[3] = inhibitors of intracellular T. cruzi replication, confirmation, NIH3T3 host cells, beta-gal luminescence (AID 2044); type: functional, cell-based;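 also: intracellular parasites grown in NIH/3T3 mouse fibroblasts as host cells; luminescent beta-galactosidase reporter signal from transgenic T. cruzi replicating inside host cells; inhibitors lower the luminescence signal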
[4] = cytotoxicity toward NIH3T3 fibroblasts, dose response, counter-screen, cell-based, ATP luminescence, mouse fibroblasts (AID 2010); type: functional;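 also: cells exposed to compound for about 90 hours before reading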
[5] = cells
[6] = system: HEK293; experiment: NOD1 signaling inhibitors, primary screen, cell-based, luminescence, uHTS (AID 1578); type: functional; conditions: Homo sapiens
[7] = system: HEK293; experiment: cells; type: functional, cell-based; conditions: Homo sapiens
[8] = system: HEK293; experiment: cells; type: functional, cell-based; conditions: Homo sapiens; remark: listed apart in the source
[9] = system: HEK293; experiment: NOD2 signaling inhibitors in MDP-stimulated cells, cell-based, uHTS, luminescence (AID 2001); type: functional; conditions: Homo sapiens
[10] = molecular target: T2, Replicative DNA helicase DnaB (Mycobacterium tuberculosis, UniProt P9WMR3); experiment: DnaB intein splicing inhibitors, dose response, biochemical, cell-free fluorescence (AID 449749); type: functional
T2 sequence (P9WMR3 whole entry): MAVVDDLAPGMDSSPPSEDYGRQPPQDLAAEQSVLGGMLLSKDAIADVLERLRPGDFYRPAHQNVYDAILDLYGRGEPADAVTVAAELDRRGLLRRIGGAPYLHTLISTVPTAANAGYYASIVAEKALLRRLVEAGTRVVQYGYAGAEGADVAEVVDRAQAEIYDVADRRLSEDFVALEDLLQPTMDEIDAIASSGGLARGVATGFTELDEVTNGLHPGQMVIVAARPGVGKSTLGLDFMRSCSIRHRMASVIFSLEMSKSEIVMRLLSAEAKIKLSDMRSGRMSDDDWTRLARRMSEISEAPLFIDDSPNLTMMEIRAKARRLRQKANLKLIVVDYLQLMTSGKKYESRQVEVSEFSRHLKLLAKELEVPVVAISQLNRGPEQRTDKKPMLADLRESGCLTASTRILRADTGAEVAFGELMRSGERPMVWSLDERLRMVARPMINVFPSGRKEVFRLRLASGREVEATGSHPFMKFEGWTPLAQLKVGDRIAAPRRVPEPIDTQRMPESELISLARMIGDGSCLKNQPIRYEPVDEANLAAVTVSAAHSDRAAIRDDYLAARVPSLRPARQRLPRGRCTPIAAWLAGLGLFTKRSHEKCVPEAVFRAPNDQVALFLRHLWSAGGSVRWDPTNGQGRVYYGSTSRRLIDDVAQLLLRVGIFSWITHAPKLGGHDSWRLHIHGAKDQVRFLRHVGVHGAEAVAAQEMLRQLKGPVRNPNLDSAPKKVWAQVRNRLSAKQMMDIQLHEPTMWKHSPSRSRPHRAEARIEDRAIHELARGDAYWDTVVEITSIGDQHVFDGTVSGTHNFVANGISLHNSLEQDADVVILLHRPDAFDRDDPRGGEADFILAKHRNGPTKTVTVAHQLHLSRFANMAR

[11] = molecular target: T3, Protein RecA (Mycobacterium tuberculosis, UniProt P9WHJ3); experiment: Fluorescence Cell-Free Homogeneous Dose Retest to Identify Inhibitors of RecA-Intein Splicing Activity. [Related pubchem assays (depositor defined):AID2097, AID2223, AID489010, AID492950]; type: functional
T3 sequence (P9WHJ3 whole entry): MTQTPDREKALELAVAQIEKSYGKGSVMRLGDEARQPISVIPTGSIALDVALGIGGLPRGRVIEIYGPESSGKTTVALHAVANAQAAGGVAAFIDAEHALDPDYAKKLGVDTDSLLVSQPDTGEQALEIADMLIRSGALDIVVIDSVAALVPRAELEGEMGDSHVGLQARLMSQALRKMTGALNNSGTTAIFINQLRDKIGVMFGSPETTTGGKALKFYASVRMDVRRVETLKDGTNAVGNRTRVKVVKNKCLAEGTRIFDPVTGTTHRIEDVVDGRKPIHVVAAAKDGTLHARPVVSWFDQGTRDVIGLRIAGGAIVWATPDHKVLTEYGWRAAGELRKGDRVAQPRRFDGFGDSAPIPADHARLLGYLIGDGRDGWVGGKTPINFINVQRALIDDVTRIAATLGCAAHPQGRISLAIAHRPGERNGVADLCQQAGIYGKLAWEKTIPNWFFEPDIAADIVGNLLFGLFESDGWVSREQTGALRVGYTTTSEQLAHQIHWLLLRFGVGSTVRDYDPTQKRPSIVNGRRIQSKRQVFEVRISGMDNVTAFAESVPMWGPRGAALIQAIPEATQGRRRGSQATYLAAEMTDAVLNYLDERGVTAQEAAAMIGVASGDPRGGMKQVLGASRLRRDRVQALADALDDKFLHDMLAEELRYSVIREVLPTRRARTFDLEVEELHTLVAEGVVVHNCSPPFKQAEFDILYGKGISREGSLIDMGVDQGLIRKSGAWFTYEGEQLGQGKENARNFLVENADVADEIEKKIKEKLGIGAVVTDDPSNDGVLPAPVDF

[12] = molecular target: T4, SUMO-activating enzyme (Homo sapiens, UniProt Q9UBT2); experiment: SUMOylation inhibitor hit validation, confirmation, SUMOylation inhibitor project, biochemical, AlphaScreen (AID 2018); type: functional
T4 sequence (Q9UBE0 whole entry): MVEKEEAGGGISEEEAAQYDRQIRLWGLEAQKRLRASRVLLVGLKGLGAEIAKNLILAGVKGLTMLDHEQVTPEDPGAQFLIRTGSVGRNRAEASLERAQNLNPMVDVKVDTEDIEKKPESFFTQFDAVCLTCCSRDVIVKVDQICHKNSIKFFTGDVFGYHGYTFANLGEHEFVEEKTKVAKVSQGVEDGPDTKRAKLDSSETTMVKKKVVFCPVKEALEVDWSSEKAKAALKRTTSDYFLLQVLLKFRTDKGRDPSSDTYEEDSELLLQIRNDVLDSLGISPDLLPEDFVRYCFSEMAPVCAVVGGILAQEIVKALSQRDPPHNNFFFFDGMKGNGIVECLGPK
T4 sequence (Q9UBT2 whole entry): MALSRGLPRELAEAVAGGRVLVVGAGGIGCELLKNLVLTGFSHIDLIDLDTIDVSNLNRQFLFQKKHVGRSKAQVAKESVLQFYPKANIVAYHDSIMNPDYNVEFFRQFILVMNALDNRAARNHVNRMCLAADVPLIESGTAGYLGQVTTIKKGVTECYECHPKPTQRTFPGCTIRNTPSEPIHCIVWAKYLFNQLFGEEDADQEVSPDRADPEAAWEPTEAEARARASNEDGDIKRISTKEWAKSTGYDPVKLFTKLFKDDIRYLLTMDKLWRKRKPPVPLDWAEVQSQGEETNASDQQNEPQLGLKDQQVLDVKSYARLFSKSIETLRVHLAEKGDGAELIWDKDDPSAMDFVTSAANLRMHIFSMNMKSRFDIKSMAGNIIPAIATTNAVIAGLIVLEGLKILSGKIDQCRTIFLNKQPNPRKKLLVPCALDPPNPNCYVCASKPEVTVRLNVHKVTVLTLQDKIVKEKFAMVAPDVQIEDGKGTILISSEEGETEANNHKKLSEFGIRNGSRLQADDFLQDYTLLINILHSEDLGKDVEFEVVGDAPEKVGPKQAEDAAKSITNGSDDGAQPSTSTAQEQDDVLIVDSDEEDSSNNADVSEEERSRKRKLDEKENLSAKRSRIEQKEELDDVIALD

[13] = molecular target: T4, SUMO-activating enzyme; experiment: inhibitors of in vitro SUMOylation cascade, primary screen, biochemical, HTRF, uHTS (AID 2006); type: protein-complex assay
[14] = molecular target: Induced myeloid leukemia cell differentiation protein Mcl-1 (Homo sapiens, UniProt Q07820); type: functional
Induced myeloid leukemia cell differentiation protein Mcl-1, sequence (Q07820 whole entry): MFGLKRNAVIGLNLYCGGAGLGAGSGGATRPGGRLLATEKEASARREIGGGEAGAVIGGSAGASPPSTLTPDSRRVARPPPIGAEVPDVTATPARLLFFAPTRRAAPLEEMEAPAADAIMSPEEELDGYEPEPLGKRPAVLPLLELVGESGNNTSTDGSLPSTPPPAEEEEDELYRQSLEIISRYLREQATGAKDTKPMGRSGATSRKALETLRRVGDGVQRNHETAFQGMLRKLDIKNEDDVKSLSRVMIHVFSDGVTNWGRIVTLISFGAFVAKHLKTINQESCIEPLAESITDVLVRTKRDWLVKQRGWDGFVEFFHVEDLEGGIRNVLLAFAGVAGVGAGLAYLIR

[15] = molecular target: Genome polyprotein (dengue virus type 2, UniProt P29990); experiment: Dengue-2 NS5 methyltransferase inhibitors, primary screen, biochemical, confirmation dose response (AID 588689); type: functional
Genome polyprotein, sequence (P29990 2492-3391 limits assumed): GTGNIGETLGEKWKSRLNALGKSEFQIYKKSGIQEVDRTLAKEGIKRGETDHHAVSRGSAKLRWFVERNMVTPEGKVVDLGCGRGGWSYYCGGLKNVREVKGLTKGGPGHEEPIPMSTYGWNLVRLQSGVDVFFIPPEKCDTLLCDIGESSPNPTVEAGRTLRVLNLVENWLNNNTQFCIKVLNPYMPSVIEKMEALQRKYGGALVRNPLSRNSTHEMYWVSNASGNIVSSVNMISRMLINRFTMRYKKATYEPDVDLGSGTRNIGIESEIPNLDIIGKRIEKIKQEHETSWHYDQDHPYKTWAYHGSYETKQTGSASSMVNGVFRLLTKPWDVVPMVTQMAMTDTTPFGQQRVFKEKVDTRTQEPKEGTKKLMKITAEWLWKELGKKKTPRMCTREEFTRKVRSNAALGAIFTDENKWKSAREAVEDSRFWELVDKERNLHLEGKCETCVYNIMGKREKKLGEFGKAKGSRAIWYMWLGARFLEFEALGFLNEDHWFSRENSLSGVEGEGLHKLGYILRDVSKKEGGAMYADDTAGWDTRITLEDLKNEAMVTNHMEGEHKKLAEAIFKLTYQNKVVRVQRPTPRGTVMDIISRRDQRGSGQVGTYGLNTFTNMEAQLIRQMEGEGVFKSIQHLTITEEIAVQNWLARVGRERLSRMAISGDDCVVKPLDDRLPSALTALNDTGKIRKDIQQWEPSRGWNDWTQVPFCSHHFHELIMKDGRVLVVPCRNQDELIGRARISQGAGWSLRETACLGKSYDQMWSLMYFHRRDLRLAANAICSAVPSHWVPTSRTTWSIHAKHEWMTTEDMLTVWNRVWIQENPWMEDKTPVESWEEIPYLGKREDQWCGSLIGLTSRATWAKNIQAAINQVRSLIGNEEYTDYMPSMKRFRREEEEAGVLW

[16] = molecular target: G-protein coupled receptor 55 (Homo sapiens, UniProt Q9Y2T6); experiment: GPR55 agonists via beta-arrestin recruitment, primary screen, imaging, U2OS cells, beta-arrestin-GFP redistribution (AID 1961); type: functional
G-protein coupled receptor 55, sequence (Q9Y2T6 whole entry, the tested form may be a part): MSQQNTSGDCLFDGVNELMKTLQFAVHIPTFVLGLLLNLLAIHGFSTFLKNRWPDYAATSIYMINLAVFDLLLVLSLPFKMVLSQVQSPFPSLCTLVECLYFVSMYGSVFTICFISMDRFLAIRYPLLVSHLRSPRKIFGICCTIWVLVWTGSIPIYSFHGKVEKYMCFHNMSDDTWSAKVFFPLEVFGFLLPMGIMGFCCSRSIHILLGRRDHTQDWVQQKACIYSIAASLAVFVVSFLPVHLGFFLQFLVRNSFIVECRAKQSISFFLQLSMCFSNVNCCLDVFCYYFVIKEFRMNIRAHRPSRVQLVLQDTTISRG

[17] = molecular target: Nucleotide-binding oligomerization domain-containing protein 2 (Homo sapiens, UniProt Q9HC29); experiment: NOD2 signaling inhibitors, cell-based, luminescence, uHTS, HEK293 (AID 1566); type: functional
Nucleotide-binding oligomerization domain-containing protein 2, sequence (Q9HC29 whole entry, the tested form may be a part): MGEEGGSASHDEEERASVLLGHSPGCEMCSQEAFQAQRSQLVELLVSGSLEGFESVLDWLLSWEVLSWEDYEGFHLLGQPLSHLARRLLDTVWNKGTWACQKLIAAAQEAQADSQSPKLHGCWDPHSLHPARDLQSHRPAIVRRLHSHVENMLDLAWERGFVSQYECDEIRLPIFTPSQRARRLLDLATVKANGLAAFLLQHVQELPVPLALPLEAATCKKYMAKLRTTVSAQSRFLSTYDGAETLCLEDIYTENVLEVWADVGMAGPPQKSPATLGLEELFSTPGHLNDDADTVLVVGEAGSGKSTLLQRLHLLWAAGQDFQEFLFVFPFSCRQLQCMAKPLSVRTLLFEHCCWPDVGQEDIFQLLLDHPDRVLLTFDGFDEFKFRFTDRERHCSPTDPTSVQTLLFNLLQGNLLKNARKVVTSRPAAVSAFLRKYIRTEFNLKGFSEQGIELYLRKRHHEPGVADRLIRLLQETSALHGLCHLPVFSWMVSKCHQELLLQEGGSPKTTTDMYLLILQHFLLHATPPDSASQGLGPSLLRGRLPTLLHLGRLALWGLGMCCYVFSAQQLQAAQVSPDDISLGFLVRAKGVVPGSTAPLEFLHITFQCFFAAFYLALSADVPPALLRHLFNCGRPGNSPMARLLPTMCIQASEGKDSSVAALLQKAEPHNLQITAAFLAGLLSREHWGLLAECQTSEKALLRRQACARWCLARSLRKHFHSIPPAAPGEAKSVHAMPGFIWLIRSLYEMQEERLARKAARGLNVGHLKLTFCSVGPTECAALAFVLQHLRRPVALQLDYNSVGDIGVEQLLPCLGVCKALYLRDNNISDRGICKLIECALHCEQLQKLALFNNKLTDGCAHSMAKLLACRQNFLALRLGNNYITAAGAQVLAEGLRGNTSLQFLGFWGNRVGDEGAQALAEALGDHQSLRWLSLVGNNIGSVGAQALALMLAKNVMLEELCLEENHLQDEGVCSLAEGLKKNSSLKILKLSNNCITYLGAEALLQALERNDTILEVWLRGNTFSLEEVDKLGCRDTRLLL

[18] = system: HEK293; experiment: cells; type: functional, cell-based; conditions: Homo sapiens; remark: listed apart in the source
[19] = molecular target: DNA dC->dU-editing enzyme APOBEC-3A (Homo sapiens, UniProt P31941); experiment: APOBEC3A DNA deaminase inhibitors, dose response, biochemical (AID 504722); type: functional
DNA dC->dU-editing enzyme APOBEC-3A, sequence (P31941 whole entry): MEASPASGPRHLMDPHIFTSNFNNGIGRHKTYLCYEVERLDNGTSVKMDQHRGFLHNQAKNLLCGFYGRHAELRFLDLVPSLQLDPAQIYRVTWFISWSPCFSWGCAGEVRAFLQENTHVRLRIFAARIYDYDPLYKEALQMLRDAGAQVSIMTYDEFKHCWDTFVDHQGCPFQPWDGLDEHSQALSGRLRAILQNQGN

[20] = molecular target: DNA dC->dU-editing enzyme APOBEC-3G (Homo sapiens, UniProt Q9HC16); experiment: Dose Response confirmation of small molecule APOBEC3G DNA Deaminase Inhibitors via a fluorescence-based single-stranded DNA deaminase assay. [Related pubchem assays (depositor defined):AID493012, AID493028]; type: functional
[21] = system: Streptococcus sp. 'group A'; experiment: growth inhibition of control SK(-) GAS strain, dose response, counter-screen for streptokinase expression inhibitor project, luminescence, kanamycin, BacTiterGlo, confirmation (AID 1900); type: functional, organism-based
[22] = molecular target: T5, Streptokinase A (Streptococcus pyogenes serotype M1, UniProt P10520); experiment: S. pyogenes streptokinase expression inhibitors, potency, dose response, plasminogen activation absorbance, OD405 (AID 1914); type: functional, Streptococcus pyogenes M1 GAS;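 also: secreted streptokinase activity via plasminogen activation per viability signal from cell pellet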
T5 sequence (P10520 whole entry): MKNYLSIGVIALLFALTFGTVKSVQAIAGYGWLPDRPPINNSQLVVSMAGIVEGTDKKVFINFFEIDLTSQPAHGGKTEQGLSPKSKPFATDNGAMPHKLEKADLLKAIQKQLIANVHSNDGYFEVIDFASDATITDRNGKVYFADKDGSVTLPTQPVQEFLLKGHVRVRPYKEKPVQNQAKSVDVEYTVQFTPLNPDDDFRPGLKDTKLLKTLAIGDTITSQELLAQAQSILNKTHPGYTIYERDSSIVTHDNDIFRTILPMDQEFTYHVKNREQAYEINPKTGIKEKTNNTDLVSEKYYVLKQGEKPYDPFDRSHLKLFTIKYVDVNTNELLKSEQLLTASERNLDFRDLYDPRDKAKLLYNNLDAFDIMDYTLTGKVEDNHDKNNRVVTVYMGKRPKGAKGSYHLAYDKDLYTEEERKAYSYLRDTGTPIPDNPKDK

[23] = system: Streptococcus; experiment: Group A Streptococcus viability loss, dose response, counter-screen for streptokinase expression inhibitor project, luminescence, BacTiterGlo (AID 1915); type: functional, organism-based;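 also: potency for reduction of bacterial viability or growth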
[24] = molecular target: Beta-galactosidase (Escherichia coli, UniProt Q8VNN2); experiment: beta-galactosidase enzyme inhibitors and activators, dose response, artefact control for CCR6 antagonist project, biochemical, E. coli enzyme, set 3 (AID 504712); type: functional
Beta-galactosidase, sequence (Q8VNN2 whole entry): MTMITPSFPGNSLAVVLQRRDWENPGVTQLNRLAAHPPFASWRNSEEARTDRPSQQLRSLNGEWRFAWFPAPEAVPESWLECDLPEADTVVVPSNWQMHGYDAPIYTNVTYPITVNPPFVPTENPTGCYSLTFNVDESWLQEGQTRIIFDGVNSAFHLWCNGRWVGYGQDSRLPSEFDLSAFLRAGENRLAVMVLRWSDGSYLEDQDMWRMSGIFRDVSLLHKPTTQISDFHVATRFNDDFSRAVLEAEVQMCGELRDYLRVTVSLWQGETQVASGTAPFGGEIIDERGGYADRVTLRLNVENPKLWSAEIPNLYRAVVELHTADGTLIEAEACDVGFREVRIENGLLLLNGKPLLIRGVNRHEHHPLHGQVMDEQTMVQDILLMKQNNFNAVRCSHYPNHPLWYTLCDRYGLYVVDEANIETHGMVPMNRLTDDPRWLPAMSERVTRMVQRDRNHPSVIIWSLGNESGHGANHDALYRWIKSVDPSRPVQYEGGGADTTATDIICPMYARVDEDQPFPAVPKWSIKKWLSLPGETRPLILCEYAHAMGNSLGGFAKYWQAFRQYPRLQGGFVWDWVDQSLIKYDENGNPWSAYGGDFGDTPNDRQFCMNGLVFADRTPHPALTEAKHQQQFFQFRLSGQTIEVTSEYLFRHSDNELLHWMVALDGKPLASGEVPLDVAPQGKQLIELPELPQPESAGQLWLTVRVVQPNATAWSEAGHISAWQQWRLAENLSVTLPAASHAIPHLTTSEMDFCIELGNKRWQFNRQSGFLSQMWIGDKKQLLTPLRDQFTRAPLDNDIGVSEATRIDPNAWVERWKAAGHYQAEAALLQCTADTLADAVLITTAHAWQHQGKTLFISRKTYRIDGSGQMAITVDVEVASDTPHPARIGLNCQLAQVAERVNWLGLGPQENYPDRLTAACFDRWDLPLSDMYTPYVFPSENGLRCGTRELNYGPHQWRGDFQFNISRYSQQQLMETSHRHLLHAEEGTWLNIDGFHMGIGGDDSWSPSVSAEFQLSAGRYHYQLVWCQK

[25] = system: H9c2; experiment: cells; type: functional, cell-based; conditions: Rattus norvegicus, H9c2, Myocardium;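 also: confirmatory concentration-response retest of ultra-high-throughput screening hits for modulation of myocardial damage; cell death induced by hydrogen peroxide oxidative stress; compound pretreatment for 60 min then peroxide exposure for 2 h; potency is for protecting the cells against peroxide damage rather than for killing them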

## O=C(Nc1nccs1)c1cn(-c2ccccc2)nc1-c1ccccc1
[1]
  IC50: > 100 µM (active)

## O=C(O)Cc1c(O)nc2ccc(Br)cc2c1-c1ccccc1Cl
[2]
  IC50: 23.1 µM (active)

## CCN(Cc1ccc(C#CCCO)cc1)CC1CCCN(CCc2cccc(F)c2)C1 (centres undefined)
[3]
  EC50: < 0.1 µM (active)
[4]
  EC50: 8.84 µM (active)
[5]
  EC50: 0.369 µM (active)

## CC(=O)c1cccc(CN2CCCC(CCC(=O)NCc3ccccc3F)C2)c1 (centres undefined)
[3]
  EC50: < 0.1 µM (active)
[4]
  EC50: > 60 µM (not active)
[5]
  EC50: 0.04 µM (active)

## CC(C)CCn1c(Sc2nc3ccccc3o2)nc2c1c(=O)[nH]c(=O)n2C
[6]
  EC50: > 20 µM (inactive)
[7]
  IC50: 7.89 µM (active)
[8]
  IC50: > 20 µM (inactive)
[9]
  IC50: 5.79 µM (active)
[10]
  AC50: > 380 µM (inconclusive)
[11]
  EC50: 4.76 µM (active)

## Cc1[nH]n(-c2ncc(-c3ccccc3)s2)c(=O)c1C(c1ccc(Cl)cc1)C(C#N)C#N (centres undefined)
[12]
  IC50: 7.91 µM (active)
[13]
  IC50: 28.8 µM (active)
[14]
  IC50: 8.69 µM (active)
[15]
  IC50: 31.9 µM (active)

## CCOc1ccc(NC(=O)N(C2CCCCCC2)C2CCN(C(C)=O)CC2)cc1
[1]
  IC50: > 100 µM (active)

## CC(=O)Nc1ccc(S(=O)(=O)Nc2cccc(-c3csc(C)n3)c2)cc1
[2]
  IC50: 58.2 µM (active)

## Cc1ccc(S(=O)(=O)n2ccc(OC(=O)c3cccs3)n2)cc1
[12]
  IC50: 3.61 µM (active)
[13]
  IC50: 94.8 µM (active)

## Cc1ccc(-c2nn(C)c(=O)c3ccccc23)cc1CNC(=O)c1ccccc1
[2]
  IC50: 7.39 µM (active)

## Cc1ccc(SC[C@H](Cc2ccccc2)N2CC[C@@H](NC(=O)OCc3ccccc3)CCC2=O)cc1
[16]
  EC50: 1.42 µM (active)

## COCCN(Cc1ccccc1)C(=O)c1cc(-c2ccc(OC)c(OC)c2)nc2ccccc12
[6]
  EC50: > 20 µM (inactive)
[7]
  IC50: > 20 µM (inactive)
[8]
  IC50: > 20 µM (inactive)
[17]
  EC50: > 20 µM (inactive)
[9]
  IC50: > 20 µM (inactive)
[18]
  IC50: 16.3 µM (active)

## Sc1nc2cc(Br)c[nH]c-2n1
[19]
  IC50: > 100 µM (inactive)
[20]
  IC50: 2.94 µM (active)

## COc1cccc(C(=O)NC(=S)N2CCN(c3ccc(C(F)(F)F)cc3[N+](=O)[O-])CC2)c1
[21]
  EC50: > 150 µM (not active)
[22]
  EC50: > 150 µM (not active)
[23]
  EC50: > 150 µM (not active)
[24]
  IC50: > 66.6 µM (inactive)

## C=CCOc1ccc(/C=N/c2ccc(OC)cc2)c(O)c1
[1]
  IC50: > 100 µM (active)
[25]
  IC50: 9.42 µM (active)

## COc1cccc(Cn2cc(-c3cccc(C(F)(F)F)c3)nn2)c1
[16]
  EC50: 9.1 µM (active)
